Assay results: US12458599B2, “Bioactivatable devices and related methods” (CTI Vascular AG, priority 2020, dated 2025)
Where two headings read alike, the source gives them in different places.

Legend:
[1] = solubility of ATTM in solvents; assay type: physicochemical
Excerpt: Preparation of Exemplary Coating Formulations: (NH4)2MoS4 (“ATTM” or ammoniumtetrathiomolybdate) as a representative compound for a pharmaceutically active copper chelating agent can be dissolved in a suitable solvent including, without limitation dimethyl acetamide, dimethylsulfoxide or tetramethylurea to provide a desired saturation concentration. […] The concentrated ATTM solution can be mixed with a variety of suitable matrix polymers commonly known to one of ordinary skill in the art, including, without limitation PVDF-HVP, PET, PLGA, PLLA, PHA, polyurethanes, polyphosphazenes, silicones and equivalents, in a suitable volume ratio to form a readily available coating formulation with a defined polymer to ATTM weight ratio per ml coating formulation. The matrix polymer solvent can be chosen to be mutually compatible with the ATTM solvent in order to avoid potential phase separation. The obtained deep red to orange solution can be centrifuged, and the supernatant filtered through a 0.22 μm PTFE filter to remove any solid residue. The finally obtained ATTM concentration can be determined via UV-Vis spectroscopy.

[2] = cited from earlier work
[3] = test system: venous endothelial cell proliferation; details: cited from earlier work
[4] = test system: IL-1α; details: cited from earlier work
[5] = aqueous solubility; assay type: physicochemical
Experimental: Solubility: Information on the actual quantitative solubility of solid Molybdenum disulfide can be sparse, and the compound can be often quoted as being insoluble in water. […] Thus, upon prolonged contact between MoS2 coated surface with an aqueous medium, a saturation concentration of 0.125-1.25 μM MoO4^2− can reasonably be expected.

| SMILES | solubility in acetone, acetonitrile, cyclohexanone, methylisobutylketone [1] | solubility in dimethylacetamide, tetramethylurea, dimethylsulfoxide, N-methylpyrrolidone, ethylendiamine, pyridine, methanol, ethanediol and water [1] | aqueous solubility ([2]; reported) | systemic concentration sufficient to achieve inhibition of venous endothelial cell proliferation [3] [µM] | concentration inhibiting the release of IL-1α [4] [nM] | saturation concentration of MoO4^2− ([5]; prolonged contact of MoS2 coated surface with aqueous medium, expected) [µM] | predicted maximum aqueous saturation concentration of the molybdate species (TM0) ([5]; stemming from MoS2) [µM] | aqueous solubility ([2]; aqueous environments) [µM] |
| --- | --- | --- | --- | --- | --- | --- | --- | --- |
| [NH4+].[NH4+].[SH-].[SH-].[S]=[Mo]=[S] [ATTM, Ammoniumtetrathiomolybdate; (NH4)2MoS4] | limited solubility | reasonable solubility | at least 7 mM | 5 | 250 |  |  |  |
| [S]=[Mo]=[S] [MoS2, Molybdenum disulfide] |  |  |  |  |  | 0.125 to 1.25 | 1.25 | 0.125 to 1.25 |
